Test results from patent US20180200257A1, “METHODS FOR THE TREATMENT OF INFLAMMATORY DISORDERS” (Galapagos NV, priority 2015, published 2018).

System: subjects with moderately to severely active RA who have an inadequate response to methotrexate (MTX)
Experiment: Study 2 (monotherapy) - ACR responses (ACR20/50/70)
Type: in vivo, human
From the text: The terms “ACR20”, “ACR50” and “ACR70” as used herein are scores which indicate how much a patient's rheumatoid arthritis has improved according to criteria set out by the American College of Rheumatology (ACR). The ACR score represents a percentage. An ACR20 score means that a person's RA has improved by 20%, an ACR50 score means it has improved by 50%, and an ACR70 score means it has improved by 70%. Specifically, to qualify for an ACR20 score, a person with RA must have at least 20% fewer tender joints and at least 20% fewer swollen joints. In addition the patient must show a 20% improvement in at least three of the following five areas: the person's overall (global) assessment of his or her own RA, the physician's global assessment of the person's RA, the person's assessment of his or her own pain, the person's assessment of his or her own physical functioning, and the results of an erythrocyte sedimentation rate or C-reactive protein (CRP) blood test (both of which test for inflammation). ACR50 and ACR70 scores use the same criteria but require 50% and 70% improvement, respectively, (Felson et al., 1993). In the data presented herein the CRP blood test is used.
Randomized, double-blind, placebo-controlled, multicenter, phase IIb dose finding study of Compound 1 (dosed as a [Compound 1:HCl:3H2O]) administered for 24 weeks as monotherapy to subjects with moderately to severely active rheumatoid arthritis who have an inadequate response to methotrexate alone
Double-blind, placebo-controlled, monotherapy study in subjects with moderately to severely active RA who have an inadequate response to methotrexate (MTX) (oral or parenteral).
280 subjects randomized to one of 3 doses of Compound 1 (dosed as a [Compound 1:HCl:3H2O]) or to placebo, given once daily (q.d.).
Twelve weeks of treatment with Compound 1 (dosed as a [Compound 1:HCl:3H2O]) at 50 mg, 100 mg, or 200 mg q.d.; or placebo. At Week 12, all subjects on placebo and the subjects on the 50 mg dose who have not achieved 20% improvement in swollen joint count (SJC66) and tender joint count (TJC68) will be assigned to 100 mg q.d. in a blinded fashion and will continue treatment until Week 24. Subjects in the other groups will maintain their randomized treatment until Week 24.
The American College of Rheumatology (ACR) composite score, which evaluates clinical improvement relative to an initial assessment, is a commonly accepted efficacy end point for clinical trials in patients with rheumatoid arthritis. The ACR score correspond to a percentage improvement in pre-set parameters, and therefore measures the evolution of the disease in a patient. For example, ACR20 denotes at least 20% improvement in tender and swollen joint counts and in three of the following end points: global assessment by the patient, global assessment by the doctor, C reactive protein (CRP), patient's pain Visual Analogue Scale and Health Assessment Questionnaire Score. The number of swollen joints, ESR and CRP correlate with radiographic progression of joint damage, whereas tender joint counts, as well as global assessments by doctors and patients, and patients' reports of pain, are sensitive to change in clinical outcomes. Physical function, as assessed by the Health Assessment Questionnaire Score, is a potent predictor of the risk of disability in rheumatoid arthritis (Felson and American College of Rheumatology Committee to Reevaluate Improvement Criteria, 2007; Felson et al., 1993).
In particular, the list of parameters used to assess ACR score can be found in the Table XCVI below and the results of the ACR responses at week 12 via either NRI or LOCF are shown in the tables below. The Hommel-corrected p-value for the pairwise comparisons of each group with placebo is shown. […]

[1] = 50 mg q.d., week 1, 12 weeks results
[2] = 50 mg q.d., week 1, 24 weeks results
[3] = 50 mg q.d., week 2, 12 weeks results
[4] = 50 mg q.d., week 2, 24 weeks results
[5] = 50 mg q.d., week 4, 12 weeks results
[6] = 50 mg q.d., week 4, 24 weeks results
[7] = 50 mg q.d., week 12, 12 weeks results
[8] = 50 mg q.d., week 12, 24 weeks results
[9] = 50 mg q.d., week 16, 24 weeks results
[10] = 50 mg q.d., week 20, 24 weeks results
[11] = 50 mg q.d., week 24, 24 weeks results
[12] = 50 mg q.d., week 8, 12 weeks results
[13] = 50 mg q.d., week 8, 24 weeks results
[14] = 100 mg q.d., week 1, 12 weeks results
[15] = 100 mg q.d., week 1, 24 weeks results
[16] = 100 mg q.d., week 2, 12 weeks results
[17] = 100 mg q.d., week 2, 24 weeks results

Structure (SMILES): O=C(Nc1nc2cccc(-c3ccc(CN4CCS(=O)(=O)CC4)cc3)n2n1)C1CC1 [Compound 1, cyclopropanecarboxylic acid {5-[4-(1,1-dioxo-thiomorpholin-4-ylmethyl)-phenyl]-[1,2,4]triazolo[1,5-a]pyridin-2-yl}-amide]
- ACR20 (LOCF) [1]: 20.8
- ACR20 (NRI) [1]: 22.2%
- ACR50 (LOCF) [1]: 1.4%
- ACR50 (NRI) [1]: 1.4%
- ACR70 (LOCF) [1]: 0.0%
- ACR70 (NRI) [1]: 0.0%
- ACR20 (LOCF) [2]: 22.2
- ACR20 (NRI) [2]: 22.2%
- ACR50 (LOCF) [2]: 1.4%
- ACR50 (NRI) [2]: 1.4%
- ACR70 (LOCF) [2]: 0.0%
- ACR70 (NRI) [2]: 0.0%
- ACR20 (LOCF) [3]: 33.3%
- ACR20 (NRI) [3]: 34.7%
- ACR50 (LOCF) [3]: 5.6%
- ACR50 (NRI) [3]: 5.6%
- ACR70 (LOCF) [3]: 1.4%
- ACR70 (NRI) [3]: 1.4%
- ACR20 (LOCF) [4]: 33.3%
- ACR20 (NRI) [4]: 33.3%
- ACR50 (LOCF) [4]: 5.6%
- ACR50 (NRI) [4]: 5.6%
- ACR70 (LOCF) [4]: 1.4%
- ACR70 (NRI) [4]: 1.4%
- ACR20 (LOCF) [5]: 54.2%
- ACR20 (NRI) [5]: 54.2%
- ACR50 (LOCF) [5]: 13.9%
- ACR50 (NRI) [5]: 15.3%
- ACR70 (LOCF) [5]: 8.3%
- ACR70 (NRI) [5]: 8.3%
- ACR20 (LOCF) [6]: 52.8%
- ACR20 (NRI) [6]: 52.8%
- ACR50 (LOCF) [6]: 15.3%
- ACR50 (NRI) [6]: 15.3%
- ACR70 (LOCF) [6]: 8.3%
- ACR70 (NRI) [6]: 8.3%
- ACR50 (NRI) [7]: 36.1%%
- ACR70 (NRI) [7]: 8.3%%
- ACR50 (NRI) [8]: 34.7%
- ACR70 (NRI) [8]: 8.3%
- ACR50 (NRI) [9]: 33.3%
- ACR70 (NRI) [9]: 15.3%
- ACR50 (NRI) [10]: 27.8%
- ACR70 (NRI) [10]: 12.5%
- ACR50 (NRI) [11]: 31.9%
- ACR70 (NRI) [11]: 19.4%
- ACR20 (LOCF) [12]: 62.5%
- ACR20 (NRI) [12]: 61.1%
- ACR50 (LOCF) [12]: 16.7%
- ACR50 (NRI) [12]: 16.7%
- ACR70 (LOCF) [12]: 6.9%
- ACR70 (NRI) [12]: 6.9%
- ACR20 (LOCF) [13]: 61.1%
- ACR20 (NRI) [13]: 61.1%
- ACR50 (LOCF) [13]: 16.7%
- ACR50 (NRI) [13]: 16.7%
- ACR70 (LOCF) [13]: 6.9%
- ACR70 (NRI) [13]: 6.9%
- ACR20 (LOCF) [14]: 24.3%
- ACR20 (NRI) [14]: 24.3%
- ACR50 (LOCF) [14]: 10.0%
- ACR50 (NRI) [14]: 10.0%
- ACR70 (LOCF) [14]: 1.4%
- ACR70 (NRI) [14]: 1.4%
- ACR20 (LOCF) [15]: 24.3%
- ACR20 (NRI) [15]: 24.3%
- ACR50 (LOCF) [15]: 10.0%
- ACR50 (NRI) [15]: 10.0%
- ACR70 (LOCF) [15]: 1.4%
- ACR70 (NRI) [15]: 1.4%
- ACR20 (LOCF) [16]: 34.3%
- ACR20 (NRI) [16]: 32.9%
- ACR50 (LOCF) [16]: 8.6%
- ACR50 (NRI) [16]: 7.1%
- ACR70 (LOCF) [16]: 1.4%
- ACR70 (NRI) [16]: 1.4%
- ACR20 (LOCF) [17]: 35.7%
- ACR20 (NRI) [17]: 32.9%
- ACR50 (LOCF) [17]: 8.6%
- ACR50 (NRI) [17]: 7.1%
- ACR70 (LOCF) [17]: 1.4%
- ACR70 (NRI) [17]: 1.4%
- ACR20 (LOCF) (100 mg q.d., week 4, 12 weeks results): 44.3%
